US20100004128A1, “HERBICIDAL ISOXAZOLINE COMPOUNDS” (SYNGENTA CROP PROTECTION, INC., priority 2006, published 2010)

System: Monocotyledonous and dicotyledonous test plants
Test: Herbicidal action, application pre-emergence
Format: in vivo
Design: key: 10=total damage to plant; 0=no damage to plant
Conditions: spray solution 1000 mg/l, scale 0-10; for Herbicidal action (damage score) AGSTE: Agrostis tenius; for Herbicidal action (damage score) AMARE: Amaranthus retroflexus; for Herbicidal action (damage score) DIGSA: Digitaria sanguinalis; for Herbicidal action (damage score) POATR: Poa trivialis; for Herbicidal action (damage score) SETIT: Setaria italica; for Herbicidal action (damage score) SETFA: Setaria faberi
Experimental: Monocotyledonous and dicotyledonous test plants were sown in sterilised standard soil in seed trays each having 96 cells. After one day (pre-emergence) or after 8 to 9 days cultivation (post-emergence) under controlled conditions in a climatic chamber (cultivation at 23/17° C., day/night; 13 hours light; 50-60% humidity; after application at 24/19° C., day/night), the plants were treated with an aqueous spray solution of 1000 mg/l of the active ingredient used (incl. 10% DMSO as solvent). The plants were grown on in the climatic chamber until the test was evaluated (10=total damage to plant, 0=no damage to plant) after 9 or 13 days.

| Compound | Herbicidal action (damage score) AGSTE | Herbicidal action (damage score) AMARE | Herbicidal action (damage score) DIGSA | Herbicidal action (damage score) POATR | Herbicidal action (damage score) SETIT | Herbicidal action (damage score) SETFA |
| --- | --- | --- | --- | --- | --- | --- |
| Cn1nc(C(F)S(=O)(=O)C2=NOC(C)(C)C2)c(C(F)(F)F)n1 (racemic) [Compound No. 1.11] | 10 | 10 | 10 | 10 | 10 | – |
| Cn1nc(Br)c(C(F)(F)[S+]([O-])C2=NOC(C)(C)C2)n1 (stereo not shown) [1.47] | 10 | 10 | 9 | 10 | – | 9 |
| COCCn1nc(C(F)(F)F)c(C(F)(F)[S+]([O-])C2=NOC(C)(C)C2)n1 (racemic) [1.25] | 10 | 10 | 10 | 10 | – | 9 |
| Cn1ncc(C(F)(F)[S+]([O-])C2=NOC(C)(C)C2)n1 (stereo not shown) [1.36] | 10 | 9 | 10 | 10 | – | 9 |
| Cn1nc(Br)c(C(F)S(=O)(=O)C2=NOC(C)(C)C2)n1 (stereo not shown) [1.45] | 10 | 9 | 10 | 10 | – | 9 |
| Cc1nn(C)nc1C(F)(F)S(=O)(=O)C1=NOC(C)(C)C1 [Compound No. 1.05] | 10 | 10 | 10 | 10 | 10 | – |
| Cn1nnc(C(F)(F)F)c1C(F)(F)S(=O)(=O)C1=NOC(C)(C)C1 [3.02] | 10 | 10 | 10 | 10 | 10 | – |
| COCCn1nc(C(F)[S+]([O-])C2=NOC(C)(C)C2)c(C(F)(F)F)n1 (mixture of isomers) [1.24] | 10 | 10 | 10 | 10 | – | 9 |
| CCn1nc(C(F)(F)F)c(C(F)(F)S(=O)(=O)C2=NOC(C)(C)C2)n1 [1.15] | 10 | 10 | 10 | 10 | – | 10 |
| CC1(C)CC([S+]([O-])C(F)(F)c2nn(CC3CCC3)nc2C(F)(F)F)=NO1 (stereo not shown) [1.49] | 10 | 9 | 10 | 10 | – | 9 |
| Cn1nnc(Br)c1C(F)(F)[S+]([O-])C1=NOC(C)(C)C1 (stereo not shown) [3.06] | 10 | 10 | 9 | 10 | – | 9 |
| Cn1nnc(C(F)(F)F)c1C(F)(F)[S+]([O-])C1=NOC(C)(C)C1 (stereo not shown) [Compound No. 3.03] | 10 | 10 | 9 | 10 | – | 8 |
| CC1(C)CC([S+]([O-])C(F)(F)c2nn(C3CCCC3)nc2C(F)(F)F)=NO1 (racemic) [1.31] | 10 | 0 | 9 | 7 | – | 9 |
| CCc1nn(CC)nc1C(F)S(=O)(=O)C1=NOC(C)(C)C1 (racemic) [1.12] | 10 | 10 | 9 | 10 | – | 9 |
| CC1(C)CC(S(=O)(=O)C(F)c2cn(C(C)(C)C)nn2)=NO1 (stereo not shown) [Compound No. 2.01] | 10 | 3 | 9 | 0 | – | 9 |
| CC1(C)CC([S+]([O-])C(F)c2nn(C3CCCC3)nc2C(F)(F)F)=NO1 (mixture of isomers) [1.30] | 10 | 10 | 9 | 10 | – | 8 |

| Compound | Herbicidal action (damage score) AGSTE | Herbicidal action (damage score) AMARE | Herbicidal action (damage score) DIGSA | Herbicidal action (damage score) POATR | Herbicidal action (damage score) SETIT | Herbicidal action (damage score) SETFA |
| --- | --- | --- | --- | --- | --- | --- |
| Cn1nc(C(F)(F)F)c(C(F)(Cl)S(=O)(=O)C2=NOC(C)(C)C2)n1 (racemic) [1.10] | 10 | 10 | 10 | 10 | 10 | – |
| Cc1nn(C)nc1C(F)S(=O)(=O)C1=NOC(C)(C)C1 (stereo not shown) [Compound No. 1.04, 4-[(5,5-dimethyl-4,5-dihydro-isoxazole-3-sulfonyl)-fluoro-methyl]-2,5-dimethyl-2H-[1,2,3]triazole] | 10 | 9 | 10 | 10 | 9 | – |
| COc1nn(C)nc1C(F)(F)S(=O)(=O)C1=NOC(C)(C)C1 [1.43] | 10 | 10 | 10 | 0 | – | 10 |
| Cn1nnc(Br)c1C(F)(F)S(=O)(=O)C1=NOC(C)(C)C1 [Compound No. 3.04] | 10 | 10 | 9 | 10 | – | 9 |
| CC1(C)CC(S(=O)(=O)C(F)(F)c2nn(CC3CCC3)nc2C(F)(F)F)=NO1 [1.48] | 10 | 9 | 10 | 6 | – | 9 |
| C=CCn1nc(C(F)(F)F)c(C(F)(F)S(=O)(=O)C2=NOC(C)(C)C2)n1 [1.32] | 10 | 10 | 10 | 10 | – | 10 |
| Cc1nn(C(F)F)nc1C(F)S(=O)(=O)C1=NOC(C)(C)C1 (racemic) [Compound No. 1.19] | 10 | 10 | 10 | 10 | – | 10 |
| CC1(C)CC(S(=O)(=O)C(F)(F)c2nn(C3CCCC3)nc2C(F)(F)F)=NO1 [1.29] | 10 | 8 | 9 | 6 | – | 9 |
| CC(C)n1nc(C(F)(F)F)c(C(F)(F)S(=O)(=O)C2=NOC(C)(C)C2)n1 [1.17] | 10 | 10 | 9 | 10 | – | 10 |
| COc1nn(C)nc1C(F)(F)[S+]([O-])C1=NOC(C)(C)C1 (stereo not shown) [1.44] | 10 | 10 | 10 | 0 | – | 9 |
| C=CCn1nc(C(F)(F)F)c(C(F)(F)[S+]([O-])C2=NOC(C)(C)C2)n1 (racemic) [1.34] | 10 | 9 | 10 | 10 | – | 10 |
| Cn1nnc(C(F)(F)F)c1C(F)S(=O)(=O)C1=NOC(C)(C)C1 (stereo not shown) [Compound No. 3.01] | 10 | 5 | 10 | 10 | 8 | – |
| CC1(C)CC([S+]([O-])C(F)c2cn(C(C)(C)C)nn2)=NO1 (mixture of isomers) [Compound No. 2.03] | 8 | 2 | 9 | 4 | – | 5 |
| CCc1nn(C)nc1C(F)(F)[S+]([O-])C1=NOC(C)(C)C1 (racemic) [1.27] | 10 | 10 | 10 | 10 | – | 9 |
| CCn1ncc(C(F)(F)S(=O)(=O)C2=NOC(C)(C)C2)n1 [1.38] | 10 | 10 | 9 | 10 | – | 9 |
| CC(C)n1nc(C(F)(F)F)c(C(F)(F)[S+]([O-])C2=NOC(C)(C)C2)n1 (racemic) [1.18] | 10 | 10 | 10 | 10 | – | 9 |
